pKd: −log10 of the molar value.
Molecular target: T1, EphA2 LBD (Homo sapiens, UniProt P29317)
T1 construct: fused on or other part: Minimal biotinylation for capture on Neutravidin (doxazosin run); amine coupling for the other compounds
Assay: Surface Plasmon Resonance binding analysis
Conditions: SPR, recombinant LBD of EphA2; read-out: dissociation constant (KD)
Method: Binding analysis was carried out using standard biosensor chips and the […] Dual Channel SPR System (Reichert Life Sciences, Depew, N.Y.). The extracellular domain (ECD) of EphA2 was coupled to the chip by standard amine coupling using 1-ethyl-3-(3-dimethylaminopropyl) carbodiimide (EDC) and N-hydroxysuccinimide (NHS), followed by ethanolamine wash. In the case of doxazosin, Neutravidin was coupled to the chip, followed by ethanolamine wash and addition of minimally biotinylated EphA2 ECD to properly orient the protein. Different concentrations of dobutamine, labetalol, and doxazosin in running buffer (PBS, 0.05% Tween-20, 1% DMSO) were flown over the chip at a rate of […] and binding analyzed in real-time. After approximately 60 seconds, running buffer was flown over the chip to dissociate the compounds from the coupled protein (downward slope of curve). Binding data were analyzed and KD values determined using Clamp software (BioLogic Software Pty Ltd).

T1 sequence (P29317 28-206 limits assumed): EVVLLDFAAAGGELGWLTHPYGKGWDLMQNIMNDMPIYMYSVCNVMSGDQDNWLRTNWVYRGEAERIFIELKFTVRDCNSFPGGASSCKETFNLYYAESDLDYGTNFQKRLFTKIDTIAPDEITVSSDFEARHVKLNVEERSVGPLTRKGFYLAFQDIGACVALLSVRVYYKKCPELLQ

Row | pKd | Structure (SMILES)
1 | 2.82 | CC(CCc1ccc(O)cc1)NCCc1ccc(O)c(O)c1 (centres unmarked) [dobutamine]
2 | 3.36 | CC(CCc1ccccc1)NCC(O)c1ccc(O)c(C(N)=O)c1 (centres unmarked) [labetalol]

— patent publication US11814372B2, “Agonists of EPHA and their uses” (CASE WESTERN RESERVE UNIVERSITY, priority 2017, dated 2023)
